# According to ChEMBL document CHEMBL1156615, “Nakijiquinones G-I, new sesquiterpenoid quinones from marine sponge” (Bioorg Med Chem, 2008):
# Calls of active or inactive are those of the source. No cut-off for these calls is given here.
# Tests used:
# Cryptococcus neoformans = assay: Antifungal activity against Cryptococcus neoformans; assay type: functional
# L1210 = assay: Cytotoxicity against mouse L1210 cells; assay type: functional, cell-based
# Aspergillus niger = assay: Antifungal activity against Aspergillus niger; assay type: functional
# Bacillus subtilis = assay: Antibacterial activity against Bacillus subtilis; assay type: functional
# Micrococcus luteus = assay: Antibacterial activity against Micrococcus luteus; assay type: functional
# Escherichia coli = assay: Antibacterial activity against Escherichia coli; assay type: functional
# Staphylococcus aureus = assay: Antibacterial activity against Staphylococcus aureus; assay type: functional
# P388 = assay: Cytotoxicity against mouse P388 cells; assay type: functional, cell-based
# [1] = target: Receptor tyrosine-protein kinase erbB-2 (Homo sapiens) (UniProt P04626); assay: Inhibition of HER2
# KB = assay: Cytotoxicity against human KB cells; assay type: functional, cell-based
# Candida albicans = assay: Antifungal activity against Candida albicans; assay type: functional
# Chain of Receptor tyrosine-protein kinase erbB-2 (Homo sapiens) (P04626 whole entry): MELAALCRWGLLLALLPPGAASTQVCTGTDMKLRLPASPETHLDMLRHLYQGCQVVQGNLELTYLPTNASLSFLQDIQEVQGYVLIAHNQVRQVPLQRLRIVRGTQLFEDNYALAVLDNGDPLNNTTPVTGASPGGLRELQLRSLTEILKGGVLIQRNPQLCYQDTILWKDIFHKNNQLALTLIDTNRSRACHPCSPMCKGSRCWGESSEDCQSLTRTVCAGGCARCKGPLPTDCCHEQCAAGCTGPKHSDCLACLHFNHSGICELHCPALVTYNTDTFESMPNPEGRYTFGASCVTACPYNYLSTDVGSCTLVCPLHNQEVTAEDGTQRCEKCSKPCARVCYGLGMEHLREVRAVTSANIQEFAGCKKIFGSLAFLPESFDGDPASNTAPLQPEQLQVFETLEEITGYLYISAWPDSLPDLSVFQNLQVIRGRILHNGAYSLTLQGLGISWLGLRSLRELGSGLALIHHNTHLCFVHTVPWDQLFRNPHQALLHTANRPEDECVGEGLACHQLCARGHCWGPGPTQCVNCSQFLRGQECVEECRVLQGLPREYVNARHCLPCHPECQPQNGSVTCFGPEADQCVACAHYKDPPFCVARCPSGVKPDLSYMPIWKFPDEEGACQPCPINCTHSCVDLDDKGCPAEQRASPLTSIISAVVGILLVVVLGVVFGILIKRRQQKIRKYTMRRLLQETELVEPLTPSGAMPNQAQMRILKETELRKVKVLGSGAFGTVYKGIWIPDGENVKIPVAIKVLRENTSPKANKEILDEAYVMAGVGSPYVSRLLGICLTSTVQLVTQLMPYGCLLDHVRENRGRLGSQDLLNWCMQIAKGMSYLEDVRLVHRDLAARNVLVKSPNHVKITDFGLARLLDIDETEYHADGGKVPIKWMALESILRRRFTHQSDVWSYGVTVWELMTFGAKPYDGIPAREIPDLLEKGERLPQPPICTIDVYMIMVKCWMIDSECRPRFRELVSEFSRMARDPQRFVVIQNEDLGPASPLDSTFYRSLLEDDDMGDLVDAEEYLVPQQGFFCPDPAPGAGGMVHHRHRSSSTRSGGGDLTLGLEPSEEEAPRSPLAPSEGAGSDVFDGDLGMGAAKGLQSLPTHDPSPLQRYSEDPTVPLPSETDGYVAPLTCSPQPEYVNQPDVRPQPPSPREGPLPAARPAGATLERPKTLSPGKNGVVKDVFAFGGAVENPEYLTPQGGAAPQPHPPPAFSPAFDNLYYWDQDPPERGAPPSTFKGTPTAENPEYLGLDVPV
SMILES,MIC (Cryptococcus neoformans) [µg/mL],IC50 (L1210) [µg/mL],MIC (Aspergillus niger) [µg/mL],MIC (Bacillus subtilis) [µg/mL],MIC (Micrococcus luteus) [µg/mL],MIC (Escherichia coli) [µg/mL],MIC (Staphylococcus aureus) [µg/mL],IC50 (P388) [µg/mL],Activity [1],IC50 (KB) [µg/mL],MIC (Candida albicans) [µg/mL]
CC1=CCC[C@H]2[C@](C)(CC3=C(O)C(=O)C=C(NCCc4cnc[nH]4)C3=O)[C@@H](C)CC[C@]12C [NAKIJIQUINONES G],> 33.3,2.9,> 33.3,33.3,33.3,> 33.3,33.3,3.2,Active,4.8,> 33.3
CC1=CCC[C@H]2[C@](C)(CC3=C(O)C(=O)C=C(NCCCCNC(=N)N)C3=O)[C@@H](C)CC[C@]12C [NAKIJIQUINONES H],8.35,8.5,16.7,33.3,16.7,> 33.3,33.3,2.4,Active,> 10,8.35
CC1=CCC[C@H]2[C@](C)(CC3=C(O)C(=O)C=C(NCCC[S+](C)[O-])C3=O)[C@@H](C)CC[C@]12C (stereo partly drawn) [NAKIJIQUINONE I],> 33.3,2.4,> 33.3,> 33.3,33.3,> 33.3,> 33.3,2.9,Active,5.6,> 33.3
